What was measured:
wtEGFR = target: T1, wtEGFR (Homo sapiens, UniProt P00533); assay: HotSpot radiometric kinase activity assay, wtEGFR; settings: biochemical activity, 4 nM wtEGFR, 10 μM 33P-ATP, 2 hours, read-out: EGFR WT IC50
T1 construct: purchased Invitrogen PR7295B
Protocol: (§1) The purpose of the wtERBB2, ERBB2-A775_G776insYVMA (ERBB2YVMA), wtEGFR biochemical assay was to evaluate the inhibition (% inhibition and IC50 values) of the small molecule inhibitors by using the “HotSpot” radiometric kinase activity assay. HotSpot assays monitor the production of kinase substrate by the radioactive gamma phosphate of adenosine triphosphate (33P-ATP) during biochemical reactions. HotSpot assays was performed in steps upon completion of the kinase reaction: deposition of a reaction mixture aliquot onto P81 ion exchange paper, extensive washing of the aforementioned P81 paper using phosphoric acid to remove unbound radiolabeled 33P-ATP from the P81 paper, and finally visualization and quantification of the dried P81 paper utilizing a phosphoimager. […] Typical reaction solutions (10 μL, final reaction volume) contained the following buffer conditions: 20 mM Hepes (pH 7.5), 10 mM MgCl2, 1 mM EGTA, 0.01% Brij35, 0.02 mg/mL BSA, 0.1 mM Na3VO4, 2 mM DTT, 1% DMSO. The assay was primed by preparing a fresh 0.2 mg/mL solution of pEY (Sigma Cat: P7244) substrate in the reaction buffer and supplementing that solution with […] of MnCl2 as substrate cofactor (Sigma Cat: M9522). The kinase of interest was then added to the solution at the appropriate concentration (30 nM wtERBB2 from, or 20 nM ERBB2YVMA, or 4 nM wtEGFR) and gently mixed prior to delivery of compound in 100% DMSO by acoustic dispensing (Beckman Echo550). Compound, Kinase, and substrate were allowed to incubate for 20 min at room temperature prior to the initiation of the reaction by addition of 33P-ATP (PerkinElmer Cat: NEG602, final conc 10 μM). […] IC50 determinations were made from a plot of kinase activity as a function of inhibitor concentration fit to the 4-parameter IC50 equation with the enzyme concentration held constant using GraphPad Prism (San Diego).

BaF3_HER2WT cells = BaF3_HER2WT cells (Homo sapiens, UniProt P04626); assay: Cell growth inhibition assay (CellTiterGlo), BaF3_HER2WT; assay type: cell-based; settings: 3-day treatment, CellTiterGlo, read-out: Cell growth inhibition activity, HER2 WT
[1] = target: T2, ERBB2-A775_G776insYVMA (ERBB2YVMA) (Homo sapiens, UniProt P04626, INS775YVMA); assay: HotSpot radiometric kinase activity assay, ERBB2YVMA; settings: biochemical activity, 20 nM ERBB2YVMA, 10 μM 33P-ATP, 2 hours, read-out: HER2 - YVMA IC50
T2 construct: purchased SignalChem E27-13BG
Protocol: as §1

BaF3_HER2YVMA cells = BaF3_HER2YVMA cells (Homo sapiens, UniProt P04626, DUP772-775, cells depend on it); assay: Cell growth inhibition assay (CellTiterGlo), BaF3_HER2YVMA; assay type: cell-based; settings: 3-day treatment, CellTiterGlo, read-out: Cell growth inhibition activity, HER2 - YVMA
BaF3_EGFRWT cells = BaF3_EGFRWT cells (Homo sapiens, UniProt P00533); assay: Cell growth inhibition assay (CellTiterGlo), BaF3_EGFRWT; assay type: cell-based; settings: 3-day treatment, CellTiterGlo, read-out: Cell growth inhibition activity, EGFR WT
BaF3_EGFRWT cells, sequence (P00533 whole entry, change not shown): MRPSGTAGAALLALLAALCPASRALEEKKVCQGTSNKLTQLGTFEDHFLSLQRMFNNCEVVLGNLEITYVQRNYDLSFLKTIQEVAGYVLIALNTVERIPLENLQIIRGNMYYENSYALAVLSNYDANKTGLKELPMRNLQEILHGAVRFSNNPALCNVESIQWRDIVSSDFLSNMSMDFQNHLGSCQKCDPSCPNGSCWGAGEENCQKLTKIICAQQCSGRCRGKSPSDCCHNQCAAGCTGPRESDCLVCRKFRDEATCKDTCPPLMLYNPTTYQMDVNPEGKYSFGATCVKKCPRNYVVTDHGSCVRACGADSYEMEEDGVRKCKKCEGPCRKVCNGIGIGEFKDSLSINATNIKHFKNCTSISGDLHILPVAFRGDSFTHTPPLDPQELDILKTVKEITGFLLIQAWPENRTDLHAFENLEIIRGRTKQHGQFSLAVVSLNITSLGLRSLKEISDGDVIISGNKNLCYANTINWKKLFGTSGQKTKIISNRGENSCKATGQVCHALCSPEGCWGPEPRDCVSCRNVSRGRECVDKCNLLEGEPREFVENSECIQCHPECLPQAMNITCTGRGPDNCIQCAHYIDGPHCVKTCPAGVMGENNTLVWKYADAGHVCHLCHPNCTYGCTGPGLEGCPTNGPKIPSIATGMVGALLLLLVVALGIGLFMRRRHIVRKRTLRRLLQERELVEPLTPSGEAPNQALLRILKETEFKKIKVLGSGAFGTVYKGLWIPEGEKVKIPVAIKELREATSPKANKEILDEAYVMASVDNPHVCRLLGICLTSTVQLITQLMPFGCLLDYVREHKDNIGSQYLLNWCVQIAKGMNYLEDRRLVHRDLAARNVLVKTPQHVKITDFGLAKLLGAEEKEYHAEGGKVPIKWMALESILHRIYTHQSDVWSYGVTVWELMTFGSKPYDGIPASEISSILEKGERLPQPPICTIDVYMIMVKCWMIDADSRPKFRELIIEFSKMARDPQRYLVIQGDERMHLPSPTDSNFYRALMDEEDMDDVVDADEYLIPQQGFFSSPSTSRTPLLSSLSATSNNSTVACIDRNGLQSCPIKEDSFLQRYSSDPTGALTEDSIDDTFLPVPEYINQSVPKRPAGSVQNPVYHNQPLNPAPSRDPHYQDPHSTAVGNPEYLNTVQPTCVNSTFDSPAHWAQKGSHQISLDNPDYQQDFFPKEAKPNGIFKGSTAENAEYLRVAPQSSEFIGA

T2 sequence (P04626 with tags, fused parts or gaps INS775YVMA limits assumed): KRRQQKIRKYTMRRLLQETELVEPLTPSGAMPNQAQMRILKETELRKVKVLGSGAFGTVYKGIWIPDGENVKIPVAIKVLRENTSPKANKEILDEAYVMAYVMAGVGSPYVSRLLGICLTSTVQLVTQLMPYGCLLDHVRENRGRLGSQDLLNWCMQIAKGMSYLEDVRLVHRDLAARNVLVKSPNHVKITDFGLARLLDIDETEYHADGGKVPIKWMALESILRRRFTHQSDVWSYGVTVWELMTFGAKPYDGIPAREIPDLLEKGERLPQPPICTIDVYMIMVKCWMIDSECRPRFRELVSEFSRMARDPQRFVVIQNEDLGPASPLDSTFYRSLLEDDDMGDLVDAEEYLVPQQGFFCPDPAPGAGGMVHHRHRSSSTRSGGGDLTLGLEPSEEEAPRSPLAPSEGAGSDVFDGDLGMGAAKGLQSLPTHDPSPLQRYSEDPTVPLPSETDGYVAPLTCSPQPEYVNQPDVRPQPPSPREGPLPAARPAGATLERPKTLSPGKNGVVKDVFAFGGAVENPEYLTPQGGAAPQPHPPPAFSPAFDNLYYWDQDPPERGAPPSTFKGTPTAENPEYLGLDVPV
T1 sequence (P00533 25-1210): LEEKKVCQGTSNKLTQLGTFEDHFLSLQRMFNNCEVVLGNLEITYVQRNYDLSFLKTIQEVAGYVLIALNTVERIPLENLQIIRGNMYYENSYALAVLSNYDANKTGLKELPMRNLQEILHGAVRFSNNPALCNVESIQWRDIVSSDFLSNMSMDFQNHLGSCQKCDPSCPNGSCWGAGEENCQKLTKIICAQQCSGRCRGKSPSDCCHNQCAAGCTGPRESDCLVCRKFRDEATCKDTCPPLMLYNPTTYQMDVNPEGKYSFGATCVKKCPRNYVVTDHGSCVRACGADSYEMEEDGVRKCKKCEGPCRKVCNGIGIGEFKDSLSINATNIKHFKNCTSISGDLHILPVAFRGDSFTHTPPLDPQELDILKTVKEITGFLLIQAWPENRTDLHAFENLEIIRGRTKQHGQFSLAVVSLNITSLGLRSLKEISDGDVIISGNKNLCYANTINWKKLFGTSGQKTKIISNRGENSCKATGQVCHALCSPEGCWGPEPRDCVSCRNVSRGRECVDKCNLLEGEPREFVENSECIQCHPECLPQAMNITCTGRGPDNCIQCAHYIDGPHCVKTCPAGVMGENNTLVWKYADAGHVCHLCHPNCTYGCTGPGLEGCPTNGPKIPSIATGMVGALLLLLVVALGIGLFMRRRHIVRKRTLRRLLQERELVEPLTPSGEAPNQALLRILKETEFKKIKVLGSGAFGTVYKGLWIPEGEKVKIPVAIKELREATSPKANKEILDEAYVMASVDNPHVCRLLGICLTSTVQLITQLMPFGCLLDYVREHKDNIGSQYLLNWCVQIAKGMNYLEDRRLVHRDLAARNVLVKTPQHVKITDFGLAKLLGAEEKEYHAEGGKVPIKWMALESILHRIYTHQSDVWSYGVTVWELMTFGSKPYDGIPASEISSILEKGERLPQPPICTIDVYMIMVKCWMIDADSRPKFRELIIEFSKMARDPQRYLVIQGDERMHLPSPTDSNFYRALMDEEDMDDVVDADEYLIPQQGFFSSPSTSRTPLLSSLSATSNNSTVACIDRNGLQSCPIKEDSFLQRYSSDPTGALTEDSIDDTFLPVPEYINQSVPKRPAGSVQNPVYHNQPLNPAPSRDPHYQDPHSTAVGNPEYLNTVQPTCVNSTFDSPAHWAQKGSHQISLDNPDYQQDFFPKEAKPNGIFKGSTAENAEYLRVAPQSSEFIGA
BaF3_HER2WT cells, sequence (P04626 whole entry, stated change not applied): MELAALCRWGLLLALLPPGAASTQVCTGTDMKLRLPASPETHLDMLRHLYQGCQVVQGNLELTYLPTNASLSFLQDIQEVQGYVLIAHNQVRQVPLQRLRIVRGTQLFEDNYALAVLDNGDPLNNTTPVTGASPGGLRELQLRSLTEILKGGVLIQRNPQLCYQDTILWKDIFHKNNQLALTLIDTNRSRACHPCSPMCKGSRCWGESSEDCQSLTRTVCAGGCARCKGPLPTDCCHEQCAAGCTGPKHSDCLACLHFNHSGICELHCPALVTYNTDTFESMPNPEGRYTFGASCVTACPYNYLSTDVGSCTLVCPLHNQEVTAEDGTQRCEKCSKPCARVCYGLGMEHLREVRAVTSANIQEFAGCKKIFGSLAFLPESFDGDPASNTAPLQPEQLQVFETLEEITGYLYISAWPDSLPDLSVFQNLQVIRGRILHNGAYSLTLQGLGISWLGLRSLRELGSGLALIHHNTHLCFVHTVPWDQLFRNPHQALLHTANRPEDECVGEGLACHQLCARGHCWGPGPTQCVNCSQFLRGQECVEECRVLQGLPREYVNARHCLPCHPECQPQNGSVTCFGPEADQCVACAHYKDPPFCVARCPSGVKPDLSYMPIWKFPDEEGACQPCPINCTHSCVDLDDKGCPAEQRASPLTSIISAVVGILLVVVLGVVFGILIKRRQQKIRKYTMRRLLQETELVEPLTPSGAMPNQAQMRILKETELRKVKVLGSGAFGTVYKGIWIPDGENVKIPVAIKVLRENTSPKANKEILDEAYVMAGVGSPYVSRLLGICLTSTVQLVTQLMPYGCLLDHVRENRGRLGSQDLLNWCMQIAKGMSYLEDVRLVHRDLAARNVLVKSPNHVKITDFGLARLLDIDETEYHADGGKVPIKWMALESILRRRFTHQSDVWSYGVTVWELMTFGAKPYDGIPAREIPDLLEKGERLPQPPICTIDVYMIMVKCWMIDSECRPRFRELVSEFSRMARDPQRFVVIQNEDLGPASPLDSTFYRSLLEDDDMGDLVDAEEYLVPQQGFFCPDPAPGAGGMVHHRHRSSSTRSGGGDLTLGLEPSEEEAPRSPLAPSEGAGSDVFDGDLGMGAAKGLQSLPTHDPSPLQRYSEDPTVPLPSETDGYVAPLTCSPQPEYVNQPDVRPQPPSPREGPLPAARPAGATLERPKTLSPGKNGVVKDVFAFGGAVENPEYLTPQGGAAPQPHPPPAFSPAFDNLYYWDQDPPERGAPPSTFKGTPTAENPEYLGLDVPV

Cc1cc(Nc2ncnn3ccc(C4CCN(C(=O)/C=C/CN(C)C)C4)c23)ccc1Oc1ccn2ncnc2c1 (single isomer, unassigned) [Example 100]
IC50 (wtEGFR): 1500 to 5000 nM

Cc1cc(Nc2ncnn3ccc(C4CCCN(C(=O)/C=C/CN(C)C)C4)c23)ccc1Oc1ccn2ncnc2c1 (single isomer, unassigned) [Example 107]
IC50 (wtEGFR): 500 to 1500 nM

Cc1cc(Nc2ncnn3ccc(C4CCCN(C(=O)/C=C/CN(C)C)C4)c23)ccc1Oc1ccn2ncnc2c1 (single isomer, unassigned) [Example 108]
IC50 (wtEGFR): 1500 to 5000 nM

Cc1cc(Nc2ncnn3ccc(C4CCCN(C(=O)/C=C/CN(C)C)CC4)c23)ccc1Oc1ccn2ncnc2c1 (single isomer, unassigned) [Example 110]
IC50 (wtEGFR): 200 to 500 nM

C=CC(=O)NC1CCN(C(=O)c2ccn3ncnc(Nc4ccc(Oc5ccn6ncnc6c5)c(C)c4)c23)CC1 [Example 5, N-(1-(4-((4-([1,2,4]triazolo[1,5-a]pyridin-7-yloxy)-3-methylphenyl)amino)pyrrolo[2,1-f][1,2,4]triazine-5-carbonyl)piperidin-4-yl)acrylamide]
GI50 (BaF3_HER2WT cells): < 200 nM
IC50 [1]: 200 to 500 nM
GI50 (BaF3_HER2YVMA cells): 200 to 500 nM
IC50 (wtEGFR): 1500 to 5000 nM
GI50 (BaF3_EGFRWT cells): 1500 to 5000 nM

C=CC(=O)N1CCC(c2ccn3ncnc(Nc4ccc(Oc5ccn6ncnc6c5)c(C)c4)c23)C1 (stereo not drawn) [Example 11, 1-(3-(4-((4-([1,2,4]triazolo[1,5-a]pyridin-7-yloxy)-3-methylphenyl)amino)pyrrolo[2,1-f][1,2,4]triazin-5-yl)pyrrolidin-1-yl)prop-2-en-1-one]
GI50 (BaF3_HER2WT cells): < 200 nM
IC50 [1]: < 200 nM
GI50 (BaF3_HER2YVMA cells): < 200 nM
IC50 (wtEGFR): 500 to 1500 nM
GI50 (BaF3_EGFRWT cells): 1500 to 5000 nM

C=CC(=O)NCCn1cc(-c2ccn3ncnc(Nc4ccc(Oc5ccn6ncnc6c5)c(C)c4)c23)cn1 [Example 13, N-(2-(4-(4-((4-([1,2,4]triazolo[1,5-a]pyridin-7-yloxy)-3-methylphenyl)amino)pyrrolo[2,1-f][1,2,4]triazin-5-yl)-1H-pyrazol-1-yl)ethyl)acrylamide]
GI50 (BaF3_HER2WT cells): < 200 nM
IC50 [1]: < 200 nM
GI50 (BaF3_HER2YVMA cells): 200 to 500 nM
IC50 (wtEGFR): 1500 to 5000 nM
GI50 (BaF3_EGFRWT cells): 1500 to 5000 nM

C=CC(=O)NC1CN(c2ccn3ncnc(Nc4ccc(Oc5ccn6ncnc6c5)c(C)c4)c23)C1 [Example 14, N-(1-(4-((4-([1,2,4]triazolo[1,5-a]pyridin-7-yloxy)-3-methylphenyl)amino)pyrrolo[2,1-f][1,2,4]triazin-5-yl)azetidin-3-yl)acrylamide]
GI50 (BaF3_HER2WT cells): < 200 nM
IC50 [1]: < 200 nM
GI50 (BaF3_HER2YVMA cells): < 200 nM
IC50 (wtEGFR): 200 to 500 nM
GI50 (BaF3_EGFRWT cells): 1500 to 5000 nM

C=CC(=O)N1CC2(C1)CN(c1ccn3ncnc(Nc4ccc(Oc5ccn6ncnc6c5)c(C)c4)c13)C2 [Example 16, 1-(6-(4-((4-([1,2,4]triazolo[1,5-a]pyridin-7-yloxy)-3-methylphenyl)amino)pyrrolo[2,1-f][1,2,4]triazin-5-yl)-2,6-diazaspiro[3.3]heptan-2-yl)prop-2-en-1-one]
GI50 (BaF3_HER2WT cells): 200 to 500 nM
IC50 [1]: < 200 nM
GI50 (BaF3_HER2YVMA cells): 500 to 1500 nM
IC50 (wtEGFR): 1500 to 5000 nM
GI50 (BaF3_EGFRWT cells): 1500 to 5000 nM

C=C(F)C(=O)NC1CN(c2ccn3ncnc(Nc4ccc(Oc5ccn6ncnc6c5)c(C)c4)c23)C1 [Example 18, N-(1-(4-((4-([1,2,4]triazolo[1,5-a]pyridin-7-yloxy)-3-methylphenyl)amino)pyrrolo[2,1-f][1,2,4]triazin-5-yl)azetidin-3-yl)-2-fluoroacrylamide]
GI50 (BaF3_HER2WT cells): 200 to 500 nM
IC50 [1]: < 200 nM
GI50 (BaF3_HER2YVMA cells): 500 to 1500 nM
IC50 (wtEGFR): 1500 to 5000 nM
GI50 (BaF3_EGFRWT cells): 1500 to 5000 nM

C=C(F)C(=O)N1CC(n2cc(-c3ccn4ncnc(Nc5ccc(Oc6ccn7ncnc7c6)c(C)c5)c34)cn2)C1 [Example 19, 1-(3-(4-(4-((4-([1,2,4]triazolo[1,5-a]pyridin-7-yloxy)-3-methylphenyl)amino)pyrrolo[2,1-f][1,2,4]triazin-5-yl)-1H-pyrazol-1-yl)azetidin-1-yl)-2-fluoroprop-2-en-1-one]
GI50 (BaF3_HER2WT cells): 200 to 500 nM
IC50 [1]: 200 to 500 nM
GI50 (BaF3_HER2YVMA cells): 500 to 1500 nM
IC50 (wtEGFR): 1500 to 5000 nM
GI50 (BaF3_EGFRWT cells): 1500 to 5000 nM

Cc1cc(Nc2ncnn3ccc(N4CCN(C(=O)/C=C/CN(C)C)CC4)c23)ccc1Oc1ccn2ncnc2c1 [Example 22, (E)-1-(4-(4-((4-([1,2,4]triazolo[1,5-a]pyridin-7-yloxy)-3-methylphenyl)amino)pyrrolo[2,1-f][1,2,4]triazin-5-yl)piperazin-1-yl)-4-(dimethylamino)but-2-en-1-one]
GI50 (BaF3_HER2WT cells): < 200 nM
IC50 [1]: < 200 nM
GI50 (BaF3_HER2YVMA cells): < 200 nM
IC50 (wtEGFR): 500 to 1500 nM
GI50 (BaF3_EGFRWT cells): 1500 to 5000 nM

Cc1cc(Nc2ncnn3ccc(C4CCN(C(=O)CCCN(C)C)CC4)c23)ccc1Oc1ccn2ncnc2c1 [Example 23, 1-(4-(4-((4-([1,2,4]triazolo[1,5-a]pyridin-7-yloxy)-3-methylphenyl)amino)pyrrolo[2,1-f][1,2,4]triazin-5-yl)piperidin-1-yl)-4-(dimethylamino)butan-1-one]
GI50 (BaF3_HER2WT cells): 500 to 1500 nM
IC50 [1]: < 200 nM
GI50 (BaF3_HER2YVMA cells): 1500 to 5000 nM
IC50 (wtEGFR): 500 to 1500 nM
GI50 (BaF3_EGFRWT cells): 1500 to 5000 nM

Cc1cc(Nc2ncnn3ccc(C4CN(C(=O)/C=C/CN5CCCCC5)C4)c23)ccc1Oc1ccn2ncnc2c1 [Example 94, (E)-1-(3-(4-((4-([1,2,4]triazolo[1,5-a]pyridin-7-yloxy)-3-methylphenyl)amino)pyrrolo[2,1-f][1,2,4]triazin-5-yl)azetidin-1-yl)-4-(piperidin-1-yl)but-2-en-1-one]
GI50 (BaF3_HER2WT cells): < 200 nM
IC50 [1]: < 200 nM
GI50 (BaF3_HER2YVMA cells): < 200 nM
GI50 (BaF3_EGFRWT cells): 1500 to 5000 nM

Cc1cc(Nc2ncnn3ccc(C4CN(C(=O)/C=C/CN5CCCC5)C4)c23)ccc1Oc1ccn2ncnc2c1 [Example 97, (E)-1-(3-(4-((4-([1,2,4]triazolo[1,5-a]pyridin-7-yloxy)-3-methylphenyl)amino)pyrrolo[2,1-f][1,2,4]triazin-5-yl)azetidin-1-yl)-4-(pyrrolidin-1-yl)but-2-en-1-one]
GI50 (BaF3_HER2WT cells): < 200 nM
IC50 [1]: < 200 nM
GI50 (BaF3_HER2YVMA cells): < 200 nM
GI50 (BaF3_EGFRWT cells): 1500 to 5000 nM

Cc1cc(Nc2ncnn3ccc(C4CCN(C(=O)/C=C/CN(C)C)C4)c23)ccc1Oc1ccn2ncnc2c1 (stereo not drawn) [Example 98, (E)-1-(3-(4-((4-([1,2,4]triazolo[1,5-a]pyridin-7-yloxy)-3-methylphenyl)amino)-pyrrolo-[2,1-f][1,2,4]triazin-5-yl)pyrrolidin-1-yl)-4-(dimethylamino)but-2-en-1-one]
GI50 (BaF3_HER2WT cells): < 200 nM
IC50 [1]: < 200 nM
GI50 (BaF3_HER2YVMA cells): 200 to 500 nM
GI50 (BaF3_EGFRWT cells): 1500 to 5000 nM

Cc1cc(Nc2ncnn3ccc(C4CN(C(=O)/C=C/CN(C)C)C4)c23)ccc1Oc1ccc2c(c1)ncn2C [Example 101, (E)-4-(dimethylamino)-1-(3-(4-((3-methyl-4-((1-methyl-1H-benzo[d]imidazol-5-yl)oxy)phenyl)amino)pyrrolo[2,1-f][1,2,4]triazin-5-yl)azetidin-1-yl)but-2-en-1-one]
GI50 (BaF3_HER2WT cells): < 200 nM
IC50 [1]: < 200 nM
GI50 (BaF3_HER2YVMA cells): < 200 nM
GI50 (BaF3_EGFRWT cells): 1500 to 5000 nM

C=CC(=O)N1CCC(c2ccn3ncnc(Nc4ccc(Oc5ccc6c(c5)ncn6C)c(C)c4)c23)CC1 [Example 113, 1-(4-(4-((3-methyl-4-((1-methyl-1H-benzo[d]imidazol-5-yl)oxy)phenyl)amino)pyrrolo[2,1-f][1,2,4]triazin-5-yl)piperidin-1-yl)prop-2-en-1-one]
GI50 (BaF3_HER2WT cells): < 200 nM
IC50 [1]: < 200 nM
GI50 (BaF3_HER2YVMA cells): < 200 nM
GI50 (BaF3_EGFRWT cells): 500 to 1500 nM
